For test [1], the target named is T1, wildtype LRRK2 (Homo sapiens, UniProt Q5S007).
T1 construct: expressed in transfected cells; host or cells: HEK293 (ATCC CRL-1573), transient transfection, ubiquitin promoter
As to the kind of experiment: LRRK2 degradation assay, wildtype LRRK2-HiBit expressed from plasmid in HEK293 cells. The note with it: HEK293 cells transfected with HiBit-tagged wildtype LRRK2, 24 hours compound incubation; for Dmax: read-out: **WT Dmax (%); for DC50: read-out: *WT DC50. The class given is cell-based. As to the method:
(§1) The assay measures the degradation of wildtype and G2019S LRRK2 tagged with a HiBit tag on the C-terminus of the protein that was expressed from a mammalian expression vector, driven by the ubiquitin promoter in HEK293 cells. Each compound dose-response was repeated on two separate days, on three separate plates each day.
(§2) Plasmid Preparation. Transfection mixes were assembled as follows and incubated for 30 minutes at room temperature. In a 15 mL tube, 5.25 mL Opti-MEM (no additions) was mixed with 17 μL Firefly Luciferase plasmid at 1 μg/μL and 158 μL WT plasmid DNA at 1 μg/μL (175 μg total DNA) were mixed by flicking. In a new 15 mL tube, 5.25 mL OptiMEM was mixed with 17 μL Firefly Luciferase plasmid at 1 μg/μL and 158 μL G2019S plasmid DNA at 1 μg/μL (175 μg total DNA) were mixed by flicking. X-tremeGene HP was mixed thoroughly using a vortex. Next, 175 μL was added to each tube and flicked to mix. Both tubes were left to incubate for 30 minutes at room temperature.
(§3) While the transfection mixes were incubating, HEK293 cells (acquired from ATCC; ATCC CRL-1573) were harvested with trypsin. Once cells are detached, the cells were resuspended in 12 mL OptiMEM+5% FBS and transferred to a 50 mL tube. The cells were mixed well and counted. Using OptiMEM+5% FBS, the cells were diluted in two 250 mL conical tubes at 0.71×10^6 cells/mL in 70 mL. One tube was labeled “WT” and the other “G2019S”. The WT and G2019S transfection mixes were added dropwise to the corresponding 250 mL tubes. The tubes were mixed first by pipetting then by swirling. The tubes were incubated at room temperature for at least 5 minutes.
(§4) Each tube was swirled before dispensing and after every three plates. Seventy microliters of cells were dispensed with WT or G2019S DNA to seven plates each. Three plates of each were tested with compound plate one (preparation described below) and three plates of each were tested with compound plate two (preparation described below). The first plate from each set served as a “prime” plate and was not used to test compounds. Each plate was incubated in the hood for 10 minutes before placing in the 37° C. incubator for 24 hours.
(§5) Preparation of Compound and Assay Plates. Two compound plates were made using 96 well polypropylene plates. Compounds were made up at 10 mM and were diluted to 1 mM in 30 μL. Each dose response curve included a well of DMSO, as a negative control and for normalization, and a well of 0.5 μM of Exemplary Compound 4 as a positive control. In addition to seven test compounds, each plate also included a dose response of Exemplary Compound 4. The compound plates were spun down along at 1200 rpm for 2 minutes.
(§6) The two compound plates were then mixed and 2 μL was diluted in intermediate plates having 248 μL of Opti-Mem in each well. Next, 10 μL diluted compounds from the intermediate plates were added to each test plate (three WT and three G2019S plates per compound plate for a total of 12 assay plates). The plates were incubated for 24 hours at 37° C.
(§7) All assay plates and all Nano-Glo Dual-Luciferase Reporter Assay System components (except for the DLR substrate) were equilibrated to room temperature. Next, the luciferase buffer was mixed with the lyophilized amber bottle until fully dissolved, and 75 μL of the luciferase mixture was added to each well of each assay plate. The assay plates were incubated for 10 minutes at room temperature with shaking for at least 5 minutes, and then read on a plate reader.
(§8) Developing Plates and Analyzing Data. One milliliter of DLR substrate and 1 mL LgBiT Protein were added to the Stop and Glo buffer, and 75 μL of the mixture was added to each well of each plate. Optically clear seals were added to each plate and each plate was incubated for 20 minutes with shaking for at least 10 minutes, and then read on a plate reader. […]
In general terms: With HiBiT, luminescence reflects the tagged protein that the partner subunit can reach.

The target in test [2] is T2, G2019S LRRK2 (Homo sapiens, UniProt Q5S007, G2019S).
T2 construct: expressed in transfected cells; host or cells: HEK293 (ATCC CRL-1573), transient transfection, ubiquitin promoter
T2 sequence (Q5S007 whole entry G2019S): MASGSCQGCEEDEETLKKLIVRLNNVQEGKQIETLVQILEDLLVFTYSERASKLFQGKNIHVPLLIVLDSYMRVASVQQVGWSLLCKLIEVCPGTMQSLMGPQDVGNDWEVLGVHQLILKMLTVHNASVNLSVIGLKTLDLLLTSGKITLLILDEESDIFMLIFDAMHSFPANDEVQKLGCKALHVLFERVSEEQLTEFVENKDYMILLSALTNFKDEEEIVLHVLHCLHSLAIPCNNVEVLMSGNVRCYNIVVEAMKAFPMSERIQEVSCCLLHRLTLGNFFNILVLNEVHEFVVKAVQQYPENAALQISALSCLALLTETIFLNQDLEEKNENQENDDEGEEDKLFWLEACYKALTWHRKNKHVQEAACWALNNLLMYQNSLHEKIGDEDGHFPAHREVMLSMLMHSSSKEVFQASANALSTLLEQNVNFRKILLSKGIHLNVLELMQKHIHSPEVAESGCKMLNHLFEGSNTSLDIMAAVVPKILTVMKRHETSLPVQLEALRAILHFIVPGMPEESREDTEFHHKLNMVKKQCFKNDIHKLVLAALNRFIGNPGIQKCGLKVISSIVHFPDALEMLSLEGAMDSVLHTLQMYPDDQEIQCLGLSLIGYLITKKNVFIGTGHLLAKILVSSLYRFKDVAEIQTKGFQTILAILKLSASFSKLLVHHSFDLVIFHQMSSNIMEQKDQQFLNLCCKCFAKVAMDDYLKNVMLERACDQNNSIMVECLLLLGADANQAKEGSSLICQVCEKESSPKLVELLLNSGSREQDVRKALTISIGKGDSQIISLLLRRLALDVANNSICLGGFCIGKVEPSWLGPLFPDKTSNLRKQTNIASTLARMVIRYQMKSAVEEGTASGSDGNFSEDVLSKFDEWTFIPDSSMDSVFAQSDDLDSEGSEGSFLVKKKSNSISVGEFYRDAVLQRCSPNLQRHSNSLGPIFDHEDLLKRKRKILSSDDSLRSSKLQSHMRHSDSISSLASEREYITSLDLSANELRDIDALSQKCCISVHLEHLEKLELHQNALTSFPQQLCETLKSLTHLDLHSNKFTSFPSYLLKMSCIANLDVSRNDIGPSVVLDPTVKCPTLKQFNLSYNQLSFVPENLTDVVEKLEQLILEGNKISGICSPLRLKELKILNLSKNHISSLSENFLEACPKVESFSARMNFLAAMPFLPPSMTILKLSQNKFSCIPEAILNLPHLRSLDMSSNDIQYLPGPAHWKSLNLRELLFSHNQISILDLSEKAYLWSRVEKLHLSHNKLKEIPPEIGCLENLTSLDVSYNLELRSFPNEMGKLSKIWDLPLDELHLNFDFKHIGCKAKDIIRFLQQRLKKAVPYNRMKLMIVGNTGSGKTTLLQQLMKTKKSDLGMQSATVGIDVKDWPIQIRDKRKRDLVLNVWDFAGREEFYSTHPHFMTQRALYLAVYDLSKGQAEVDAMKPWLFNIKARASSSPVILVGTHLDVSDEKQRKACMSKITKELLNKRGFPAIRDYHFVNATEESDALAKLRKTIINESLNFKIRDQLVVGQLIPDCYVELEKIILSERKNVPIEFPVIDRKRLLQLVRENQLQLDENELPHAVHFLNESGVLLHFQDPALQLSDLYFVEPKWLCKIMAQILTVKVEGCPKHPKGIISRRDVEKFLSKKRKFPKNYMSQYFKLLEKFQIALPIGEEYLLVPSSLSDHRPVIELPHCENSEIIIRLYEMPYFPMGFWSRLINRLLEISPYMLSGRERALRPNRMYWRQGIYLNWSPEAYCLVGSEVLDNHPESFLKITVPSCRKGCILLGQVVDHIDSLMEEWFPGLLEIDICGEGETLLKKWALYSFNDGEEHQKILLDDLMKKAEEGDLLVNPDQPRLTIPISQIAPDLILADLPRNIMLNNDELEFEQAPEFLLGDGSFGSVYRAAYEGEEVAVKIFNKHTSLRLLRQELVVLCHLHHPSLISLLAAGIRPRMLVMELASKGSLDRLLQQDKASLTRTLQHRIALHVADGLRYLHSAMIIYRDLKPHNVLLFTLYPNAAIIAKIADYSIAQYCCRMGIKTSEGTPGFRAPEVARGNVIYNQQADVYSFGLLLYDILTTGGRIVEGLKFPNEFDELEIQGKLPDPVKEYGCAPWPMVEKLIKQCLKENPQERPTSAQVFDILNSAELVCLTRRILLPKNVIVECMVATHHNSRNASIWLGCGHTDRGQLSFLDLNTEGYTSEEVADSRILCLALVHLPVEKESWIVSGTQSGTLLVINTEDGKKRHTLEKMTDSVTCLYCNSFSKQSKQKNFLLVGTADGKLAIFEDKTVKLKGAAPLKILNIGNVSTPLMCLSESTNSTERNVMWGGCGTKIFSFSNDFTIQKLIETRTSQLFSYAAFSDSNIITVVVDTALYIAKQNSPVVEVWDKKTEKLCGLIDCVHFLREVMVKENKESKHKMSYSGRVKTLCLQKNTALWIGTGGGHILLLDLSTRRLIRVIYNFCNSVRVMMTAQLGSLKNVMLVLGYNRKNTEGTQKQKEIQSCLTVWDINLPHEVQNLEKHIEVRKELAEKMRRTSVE
The test is described as follows: LRRK2 degradation assay, G2019S LRRK2-HiBit expressed from plasmid in HEK293 cells. The class given is cell-based. To be noted: HEK293 cells transfected with HiBit-tagged G2019S LRRK2, 24 hours compound incubation. As to the method: as §1, §2, §3, §4, §5, §6, §7, §8

Where only a bound is given, the exact number is not on record here.

T1 sequence (Q5S007 whole entry): as the sequence (Q5S007 whole entry G2019S) above, with S2019G counted along it

Turning to `CC1(Oc2ccc3[nH]nc(-c4cc(N5CCO[C@H](CCOCCOCCOCCOc6ccc7c(c6)C(=O)N(C6CCC(=O)NC6=O)C7=O)C5)ncn4)c3c2)CC1` (stereo in doubt) [compound 17, 2-(2,6-dioxopiperidin-3-yl)-5-(2-(2-(2-(2-(4-(6-(5-(1-methylcyclopropoxy)-1H-indazol-3-yl)pyrimidin-4-yl)morpholin-2-yl)ethoxy)ethoxy)ethoxy)ethoxy)isoindoline-1,3-dione], in test [1], the Dmax (in general, the greatest extent of degradation seen) was at least 70% and the half-maximal degradation concentration (DC50) (usually the midpoint of the concentration-degradation curve) is 10 to 50 nM. Also, in test [2], the DC50 lay within 50 to 100 nM and the Dmax was at least 70%.

In the case of `C[C@H]1CN(c2cc(-c3[nH]nc4ccc(OC5(C)CC5)cc34)ncn2)CCN1CCOc1ccc2c(c1)C(=O)N(C1CCC(=O)NC1=O)C2=O` (stereo partly drawn) [compound 1, 2-(2,6-dioxopiperidin-3-yl)-5-{2-[(2S)-2-methyl-4-{6-[5-(1-methylcyclopropoxy)-1H-indazol-3-yl]pyrimidin-4-yl}piperazin-1-yl]ethoxy}-2,3-dihydro-1H-isoindole-1,3-dione], in test [1], the Dmax is below 50% and the DC50 was below 10 nM. For the same compound, in test [2], the DC50 was below 10 nM and the Dmax was below 50%.

`C[C@H]1CN(c2cc(-c3n[nH]c4ccc(OC5(C)CC5)cc34)ncn2)CCN1CCOCCOc1ccc2c(c1)C(=O)N(C1CCC(=O)NC1=O)C2=O` (stereo partly drawn) [compound 2, 2-(2,6-dioxopiperidin-3-yl)-5-(2-{2-[(2S)-2-methyl-4-{6-[5-(1-methylcyclopropoxy)-1H-indazol-3-yl]pyrimidin-4-yl}piperazin-1-yl]ethoxy}ethoxy)-2,3-dihydro-1H-isoindole-1,3-dione]: in test [1], the Dmax was 50 to 70% and the DC50 is below 10 nM. In addition, in test [2], the DC50 was below 10 nM and the Dmax is below 50%.

Consider `C[C@H]1CN(c2cc(-c3n[nH]c4ccc(OC5(C)CC5)cc34)ncn2)CCN1CCOCCOCCOc1ccc2c(c1)C(=O)N(C1CCC(=O)NC1=O)C2=O` (stereo partly drawn) [compound 3, 2-(2,6-dioxopiperidin-3-yl)-5-[2-(2-{2-[(2S)-2-methyl-4-{6-[5-(1-methylcyclopropoxy)-1H-indazol-3-yl]pyrimidin-4-yl}piperazin-1-yl]ethoxy}ethoxy)ethoxy]-2,3-dihydro-1H-isoindole-1,3-dione], for which the Dmax was at least 70% in test [1] and 50 to 70% in test [2]. Besides, the half-maximal degradation concentration (DC50) in test [1] is below 10 nM; in test [2] it was 10 to 50 nM.

For `C[C@H]1CN(c2cc(-c3n[nH]c4ccc(OC5(C)CC5)cc34)ncn2)CCN1CCOCCOCCOCCOCCOc1ccc2c(c1)C(=O)N(C1CCC(=O)NC1=O)C2=O` (stereo partly drawn) [compound 5, 2-(2,6-dioxopiperidin-3-yl)-5-({14-[(2S)-2-methyl-4-{6-[5-(1-methylcyclopropoxy)-1H-indazol-3-yl]pyrimidin-4-yl}piperazin-1-yl]-3,6,9,12-tetraoxatetradecan-1-yl}oxy)-2,3-dihydro-1H-isoindole-1,3-dione], the Dmax in test [1] and in test [2] was at least 70% in each case. Besides, the 50% degradation concentration (DC50) in test [1] and in test [2] was 10 to 50 nM in each case.

Regarding `C[C@@H]1CN(c2cc(-c3n[nH]c4ccc(OC5(C)CC5)cc34)ncn2)C[C@H](C)N1CCOCCOCCOc1ccc2c(c1)C(=O)N(C1CCC(=O)NC1=O)C2=O` (stereo partly drawn) [compound 6, 5-[2-(2-{2-[(2R,6S)-2,6-dimethyl-4-{6-[5-(1-methylcyclopropoxy)-1H-indazol-3-yl]pyrimidin-4-yl}piperazin-1-yl]ethoxy}ethoxy)ethoxy]-2-(2,6-dioxopiperidin-3-yl)-2,3-dihydro-1H-isoindole-1,3-dione], the Dmax in test [1] and in test [2] was 50 to 70% each time. Also, the DC50 in test [1] and in test [2] was below 10 nM in each case.

Turning to `C[C@@H]1CN(c2cc(-c3n[nH]c4ccc(OC5(C)CC5)cc34)ncn2)C[C@H](C)N1CCOCCOCCOCCOc1ccc2c(c1)C(=O)N(C1CCC(=O)NC1=O)C2=O` (stereo partly drawn) [compound 7, 5-{2-[2-(2-{2-[(2R,6S)-2,6-dimethyl-4-{6-[5-(1-methylcyclopropoxy)-1H-indazol-3-yl]pyrimidin-4-yl}piperazin-1-yl]ethoxy}ethoxy)ethoxy]ethoxy}-2-(2,6-dioxopiperidin-3-yl)-2,3-dihydro-1H-isoindole-1,3-dione], in test [1], the Dmax is at least 70% and the DC50 is below 10 nM. For the same compound, in test [2], the DC50 is below 10 nM and the Dmax was in the range of 50 to 70%.

In the case of `CC(C)Oc1ccc2[nH]nc(-c3cc(N4CCN(CCOCCOCCOc5ccc6c(c5)C(=O)N(C5CCC(=O)NC5=O)C6=O)[C@@H](C)C4)ncn3)c2c1` (stereo partly drawn) [compound 8, 2-(2,6-dioxopiperidin-3-yl)-5-[2-(2-{2-[(2S)-2-methyl-4-{6-[5-(propan-2-yloxy)-1H-indazol-3-yl]pyrimidin-4-yl}piperazin-1-yl]ethoxy}ethoxy)ethoxy]-2,3-dihydro-1H-isoindole-1,3-dione], the Dmax in test [1] and in test [2] was below 50% each time. The DC50 in test [1] and in test [2] was at least 100 nM in each case.

On to `CC(C)Oc1ccc2[nH]nc(-c3cc(N4CCN(CCOCCOCCOCCOc5ccc6c(c5)C(=O)N(C5CCC(=O)NC5=O)C6=O)[C@@H](C)C4)ncn3)c2c1` (stereo partly drawn) [compound 9, 2-(2,6-dioxopiperidin-3-yl)-5-{2-[2-(2-{2-[(2S)-2-methyl-4-{6-[5-(propan-2-yloxy)-1H-indazol-3-yl]pyrimidin-4-yl}piperazin-1-yl]ethoxy}ethoxy)ethoxy]ethoxy}-2,3-dihydro-1H-isoindole-1,3-dione], for which the Dmax in test [1] and in test [2] was below 50% each time. Moreover, the DC50 in test [1] and in test [2] was at least 100 nM each time.

As for `CC(C)Oc1ccc2[nH]nc(-c3cc(N4C[C@@H](C)N(CCOCCOCCOCCOc5ccc6c(c5)C(=O)N(C5CCC(=O)NC5=O)C6=O)[C@@H](C)C4)ncn3)c2c1` (stereo partly drawn) [compound 10, 5-{2-[2-(2-{2-[(2R,6S)-2,6-dimethyl-4-{6-[5-(propan-2-yloxy)-1H-indazol-3-yl]pyrimidin-4-yl}piperazin-1-yl]ethoxy}ethoxy)ethoxy]ethoxy}-2-(2,6-dioxopiperidin-3-yl)-2,3-dihydro-1H-isoindole-1,3-dione], in test [1], the Dmax is 50 to 70% and the DC50 is 10 to 50 nM. In test [2], this compound had a half-maximal degradation concentration (DC50) of 10 to 50 nM and a Dmax of 50 to 70%.

Turning to `CC(C)Oc1ccc2[nH]nc(-c3ccnc(N4CCN(CCOCCOCCOCCOc5ccc6c(c5)C(=O)N(C5CCC(=O)NC5=O)C6=O)[C@@H](C)C4)c3)c2c1` (stereo partly drawn) [compound 11, 2-(2,6-dioxopiperidin-3-yl)-5-{2-[2-(2-{2-[(2S)-2-methyl-4-{4-[5-(propan-2-yloxy)-1H-indazol-3-yl]pyridin-2-yl}piperazin-1-yl]ethoxy}ethoxy)ethoxy]ethoxy}-2,3-dihydro-1H-isoindole-1,3-dione], in test [1], the Dmax lay within 50 to 70% and the 50% degradation concentration (DC50) is at least 100 nM. In test [2], this compound had a DC50 of 10 to 50 nM and a Dmax of 50 to 70%.

Regarding `CC(C)Oc1ccc2[nH]nc(-c3cc(N4CCN(CCN5CC(CCN6CCN(c7ccc8c(c7)C(=O)N(C7CCC(=O)NC7=O)C8=O)CC6)C5)CC4)ncn3)c2c1` (stereo not shown) [compound 46, 2-(2,6-dioxopiperidin-3-yl)-5-(4-(2-(1-(2-(4-(6-(5-isopropoxy-1H-indazol-3-yl)pyrimidin-4-yl)piperazin-1-yl)ethyl)azetidin-3-yl)ethyl)piperazin-1-yl)isoindoline-1,3-dione], in test [1], the Dmax lay within 50 to 70% and the DC50 is below 10 nM.

The values are drawn from patent US20250114356A1, “INDAZOLE BASED COMPOUNDS AND ASSOCIATED METHODS OF USE” (Arvinas Operations, Inc., priority 2020, published 2025).
